Patent US20230295260A1, “GLP RECEPTOR AGONISTS” (HEPTARES THERAPEUTICS LIMITED, priority 2020, published 2023)
Non-standard residues stand in square brackets, D forms with d. Residues, ends and D or L forms follow the SMILES beside them. *: point of attachment. Malonyl(2,2-Me2,histaminyl) = CC(C)(C(=O)NCCc1cnc[nH]1)C(=O)*; Ala(1H-tetrazol-5-yl) = N[C@@H](Cc1nnn[nH]1)C(=O)O; Nle = CCCC[C@H](N)C(=O)O; Aib = CC(C)(N)C(=O)O; Alloc = C=CCOC(=O)*

Legend:
[1] = molecular target: T1, mouse GLP2 receptor (Mus musculus, UniProt Q5IXF8); assay: cAMP accumulation assay (HTRF), functional agonism of mouse GLP2 receptor in HEK cells; assay type: cell-based; conditions: HEK cells transiently transfected, 45 min 37° C.; for Emax: HEK293, read-out: Mouse GLP-2R agonist cAMP Emax
T1 construct: expressed in transfected cells; host or cells: HEK cells, transient transfection with GeneJuice
T1 sequence (Q5IXF8 1-512): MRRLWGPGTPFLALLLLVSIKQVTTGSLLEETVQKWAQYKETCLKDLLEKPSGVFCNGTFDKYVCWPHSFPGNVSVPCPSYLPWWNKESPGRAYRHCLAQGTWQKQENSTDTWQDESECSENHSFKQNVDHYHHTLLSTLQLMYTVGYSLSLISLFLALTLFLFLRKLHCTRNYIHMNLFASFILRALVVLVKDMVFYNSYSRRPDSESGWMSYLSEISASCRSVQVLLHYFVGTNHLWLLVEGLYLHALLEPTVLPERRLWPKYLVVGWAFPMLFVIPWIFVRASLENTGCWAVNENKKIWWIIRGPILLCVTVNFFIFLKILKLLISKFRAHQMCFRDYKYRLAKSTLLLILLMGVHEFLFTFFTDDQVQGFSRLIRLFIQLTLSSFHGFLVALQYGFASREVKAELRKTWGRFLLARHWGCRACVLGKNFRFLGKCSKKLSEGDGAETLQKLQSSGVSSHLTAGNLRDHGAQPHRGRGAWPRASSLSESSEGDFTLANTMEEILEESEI

[2] = molecular target: T2, human GLP1 receptor (Homo sapiens, UniProt P43220); assay: cAMP accumulation assay (HTRF), functional agonism of human GLP1 receptor in HEK cells; assay type: cell-based; conditions: HEK cells, human GLP1 receptor BacMam, 45 min 37° C.; for Emax: HEK293, read-out: Human GLP-1R agonist cAMP Emax
T2 construct: expressed in transfected cells; host or cells: HEK cells, BacMam virus transduction
Description: (§1) The functional activity of the peptides were assessed using a HTRF cAMP assay. pEC50 values are quoted.
(§2) cAMP production upon agonist stimulation of human GLP2 or GLP1 receptor was assessed utilizing HiRange cAMP kit (Cisbio). In brief, HEK cells were infected with either human GLP2 or GLP1 receptor BacMam virus for 24 hours and frozen for later use in the assay. […] Cells were prepared in the assay buffer (HBSS (Lonza) supplemented with 0.5 mM IBMX (Tocris)). After 45 min incubation at 37° C., the reaction was stopped by addition of the HTRF detection reagents in the lysis buffer provided in the kit.

[3] = molecular target: T3, human GLP2 receptor (Homo sapiens, UniProt O95838); assay: cAMP accumulation assay (HTRF), functional agonism of human GLP2 receptor in HEK cells; conditions: for Emax: HEK293, read-out: Human GLP-2R agonist cAMP Emax;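 for all read-outs here: HEK cells transduced via BacMam to express human GLP2 receptor, agonist-stimulated cAMP measured by HTRF after 45 min at 37 °C in HBSS with 0.5 mM IBMX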
T3 sequence (O95838 1-553): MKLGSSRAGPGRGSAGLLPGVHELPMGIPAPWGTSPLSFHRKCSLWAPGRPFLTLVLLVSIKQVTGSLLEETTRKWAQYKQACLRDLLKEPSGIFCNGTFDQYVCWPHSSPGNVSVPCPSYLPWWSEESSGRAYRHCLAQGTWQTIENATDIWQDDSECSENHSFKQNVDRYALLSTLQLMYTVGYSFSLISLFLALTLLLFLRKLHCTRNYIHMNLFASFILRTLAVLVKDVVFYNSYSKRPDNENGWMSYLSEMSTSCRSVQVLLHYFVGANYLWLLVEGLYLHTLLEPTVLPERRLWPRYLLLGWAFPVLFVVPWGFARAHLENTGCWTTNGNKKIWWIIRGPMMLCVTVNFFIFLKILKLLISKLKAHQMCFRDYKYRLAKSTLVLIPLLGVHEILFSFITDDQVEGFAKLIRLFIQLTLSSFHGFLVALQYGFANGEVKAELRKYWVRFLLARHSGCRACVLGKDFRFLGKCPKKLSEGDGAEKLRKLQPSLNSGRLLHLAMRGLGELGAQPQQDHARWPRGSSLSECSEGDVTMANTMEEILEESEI
Description: as §1, §2

[4] = molecular target: T4, mouse GLP1 receptor (Mus musculus, UniProt O35659); assay: cAMP accumulation assay (HTRF), functional agonism of mouse GLP1 receptor in HEK cells; assay type: cell-based; conditions: HEK cells transiently transfected, 45 min 37° C.; for Emax: HEK293, read-out: Mouse GLP-1 R agonist cAMP Emax
T4 construct: expressed in transfected cells; host or cells: HEK cells, transient transfection with GeneJuice
T4 sequence (O35659 22-463): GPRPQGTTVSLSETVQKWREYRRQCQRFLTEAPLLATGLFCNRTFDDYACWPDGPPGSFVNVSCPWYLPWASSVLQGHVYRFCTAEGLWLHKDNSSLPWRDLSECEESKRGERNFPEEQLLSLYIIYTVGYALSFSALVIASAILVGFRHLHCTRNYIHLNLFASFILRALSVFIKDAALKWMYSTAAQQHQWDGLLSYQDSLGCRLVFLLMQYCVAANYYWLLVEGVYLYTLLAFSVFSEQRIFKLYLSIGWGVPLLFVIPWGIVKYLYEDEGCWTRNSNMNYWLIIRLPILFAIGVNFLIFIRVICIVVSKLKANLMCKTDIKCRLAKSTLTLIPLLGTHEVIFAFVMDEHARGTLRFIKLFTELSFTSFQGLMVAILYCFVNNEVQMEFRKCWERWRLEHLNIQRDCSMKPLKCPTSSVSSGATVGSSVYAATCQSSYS

T2 sequence (P43220 24-463): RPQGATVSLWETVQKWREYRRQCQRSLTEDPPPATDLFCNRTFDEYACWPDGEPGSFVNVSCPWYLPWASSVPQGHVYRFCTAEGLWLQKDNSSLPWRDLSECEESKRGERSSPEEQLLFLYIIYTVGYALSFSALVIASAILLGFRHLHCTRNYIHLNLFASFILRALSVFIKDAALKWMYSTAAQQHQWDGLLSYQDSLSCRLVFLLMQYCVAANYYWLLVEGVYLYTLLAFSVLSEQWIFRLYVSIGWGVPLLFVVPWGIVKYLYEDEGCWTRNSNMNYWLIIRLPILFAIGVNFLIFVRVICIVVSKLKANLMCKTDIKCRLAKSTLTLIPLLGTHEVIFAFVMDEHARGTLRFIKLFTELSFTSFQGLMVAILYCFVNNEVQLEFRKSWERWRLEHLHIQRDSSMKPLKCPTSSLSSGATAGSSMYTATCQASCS

Emax [1] [%] | EC50 ([1]; read-out: Mouse GLP-2R agonist cAMP pEC50 (converted)) [nM] | Emax [2] [%] | EC50 ([2]; read-out: Human GLP-1R agonist cAMP pEC50 (converted)) [nM] | EC50 [3] [pM] | Emax [3] [%] | Emax [4] [%] | EC50 ([4]; read-out: Mouse GLP-1 R agonist cAMP pEC50 (converted)) [nM] | Structure (SMILES)
99.9 | 1.58 | 95.1 | 5.01 | 7.94 | 101 | 94.4 | 1.58 | C=CCOC(=O)NCCCC[C@H](NC(=O)[C@H](C)NC(=O)[C@H](C)NC(=O)[C@H](CCCCNC(=O)OCC=C)NC(=O)[C@H](CC(C)C)NC(=O)[C@H](CC(=O)O)NC(=O)[C@H](CC(C)C)NC(=O)C(C)(C)NC(=O)[C@@H](NC(=O)[C@@H](Cc1ccccc1)NC(=O)[C@H](CCCC)NC(=O)[C@H](CCC(=O)O)NC(=O)[C@H](CC(=O)O)NC(=O)[C@H](CO)NC(=O)[C@H](Cc1ccccc1)NC(=O)[C@H](CO)NC(=O)CNC(=O)[C@H](Cc1nn[nH]n1)NC(=O)C(C)(C)C(=O)NCCc1c[nH]cn1)[C@@H](C)O)C(=O)N[C@@H](CC(=O)O)C(=O)N[C@@H](Cc1ccccc1)C(=O)N[C@H](C(=O)N[C@@H](CC(N)=O)C(=O)N[C@@H](Cc1c[nH]c2ccccc12)C(=O)N[C@@H](CC(C)C)C(=O)N[C@H](C(=O)N[C@@H](CCC(N)=O)C(=O)N[C@H](C(=O)N[C@@H](CCCCN)C(=O)N[C@H](C(=O)N[C@H](C(=O)N[C@@H](CC(=O)O)C(N)=O)[C@@H](C)O)[C@@H](C)CC)[C@@H](C)O)[C@@H](C)CC)[C@@H](C)CC [Example 15] ({Malonyl(2,2-Me2,histaminyl)}-[Ala(1H-tetrazol-5-yl)]GSFSDE[Nle][dF]T[Aib]LDLK(Alloc)AAK(Alloc)DFINWLIQTKITD-NH2)
100 | – | 81.1 | – | – | 102 | 83.3 | – | C=CCOC(=O)NCCCC[C@H](NC(=O)[C@H](CC(C)C)NC(=O)[C@H](CC(=O)O)NC(=O)[C@H](CC(C)C)NC(=O)[C@@H](NC(=O)[C@@H](NC(=O)[C@@H](Cc1ccccc1)NC(=O)[C@H](CCCC)NC(=O)[C@H](CCC(=O)O)NC(=O)[C@H](CC(=O)O)NC(=O)[C@H](CO)NC(=O)[C@H](Cc1ccccc1)NC(=O)[C@H](CO)NC(=O)[C@H](C)NC(=O)[C@H](Cc1nn[nH]n1)NC(=O)C(C)(C)C(=O)NCCc1c[nH]cn1)[C@@H](C)O)[C@@H](C)CC)C(=O)N[C@@H](C)C(=O)N[C@@H](C)C(=O)N[C@@H](CCCCN)C(=O)N[C@@H](CC(=O)O)C(=O)N[C@@H](Cc1ccccc1)C(=O)N[C@H](C(=O)N[C@@H](CC(N)=O)C(=O)N[C@@H](Cc1c[nH]c2ccccc12)C(=O)N[C@@H](CC(C)C)C(=O)N[C@H](C(=O)N[C@@H](CCC(N)=O)C(=O)N[C@H](C(=O)N[C@@H](CCCCN)C(=O)N[C@H](C(=O)N[C@H](C(=O)N[C@@H](CC(=O)O)C(N)=O)[C@@H](C)O)[C@@H](C)CC)[C@@H](C)O)[C@@H](C)CC)[C@@H](C)CC [Example 12] ({Malonyl(2,2-Me2,histaminyl)}-[Ala(1H-tetrazol-5-yl)]ASFSDE[Nle][dF]TILDLK(Alloc)AAKDFINWLIQTKITD-NH2)
